Assays:
GST-Flk1 = biological target: T1, GST-Flk1 (Mus musculus, UniProt P35918); test: GST-FLK-1 bioassay (ELISA, tyrosine kinase activity on poly(glu,tyr)); format: biochemical
T1 construct: GST-Flk1cd purified from sf9 recombinant baculovirus transformation (SUGEN, Inc.); host or cells: Sf9 insect cells (recombinant baculovirus)
Method: The assays described herein are performed in an ELISA (Enzyme-Linked Immunosorbent Sandwich Assay) format (Voller, et al., 1980, “Enzyme-Linked Immunosorbent Assay,” Manual of Clinical Immunology, 2d ed., Rose and Friedman, Am. Soc. Of Microbiology, Washington, D.C., pp. 359-371). The general procedure is as follows: a compound is introduced to cells expressing the test kinase, either naturally or recombinantly, for a selected period of time after which, if the test kinase is a receptor, a ligand known to activate the receptor is added. The cells are lysed and the lysate is transferred to the wells of an ELISA plate previously coated with a specific antibody recognizing the substrate of the enzymatic phosphorylation reaction. Non-substrate components of the cell lysate are washed away and the amount of phosphorylation on the substrate is detected with an antibody specifically recognizing phosphotyrosine compared with control cells that were not contacted with a test compound.
This assay analyzes the tyrosine kinase activity of GST-Flk1 on poly(glu,tyr) peptides.
• 1. Corning 96-well ELISA plates (Corning Catalog No. 5805-96). • 2. poly(glu,tyr) 4:1, lyophilizate (Sigma Catalog #P0275). • 3. Preparation of poly(glu,tyr)(pEY) coated assay plates: Coat 2 ug/well of poly(glu,tyr)(pEY) in 100 μL PBS, hold at room temperature for 2 hours or at 4° C. overnight. Cover plates well to prevent evaporation. • 4. PBS Buffer: for 1 L, mix 0.2 g KH2PO4, 1.15 g Na2HPO4, 0.2 g KCl and 8 g NaCl in approx. 900 ml dH2O. When all reagents have dissolved, adjust the pH to 7.2 with HCl. Bring total volume to 1 L with dH2O. • 5. PBST Buffer: to 1 L of PBS Buffer, add 1.0 ml Tween-20. • 6. TBB—Blocking Buffer: for 1 L, mix 1.21 g TRIS, 8.77 g NaCl, 1 ml TWEEN-20 in approximately 900 ml dH2O. Adjust pH to 7.2 with HCl. Add 10 g BSA, stir to dissolve. Bring total volume to 1 L with dH2O. Filter to remove particulate matter. • 7. 1% BSA in PBS: To make a 1× working solution, add 10 g BSA to approx. 990 ml PBS buffer, stir to dissolve. Adjust total volume to 1 L with PBS buffer, filter to remove particulate matter. • 8. 50 mM Hepes pH 7.5. • 9. GST-Flk1cd purified from sf9 recombinant baculovirus transformation (SUGEN, Inc.). • 10. 4% DMSO in dH2O. • 11. 10 mMATP in dH2O. • 12. 40 mM MnCl2 • 13. Kinase Dilution Buffer (KDB): mix 10 ml Hepes (pH 7.5), 1 ml 5M NaCl, 40 μL 100 mM sodium orthovanadate and 0.4 ml of 5% BSA in dH2O with 88.56 ml dH2O. • 14. NUNC 96-well V bottom polypropylene plates, Applied Scientific Catalog #AS-72092 • 15. EDTA: mix 14.12 g ethylenediaminetetraacetic acid (EDTA) to approx. 70 ml dH2O. Add 10 N NaOH until EDTA dissolves. Adjust pH to 8.0. Adjust total volume to 100 ml with dH2O. • 16. 1^0 Antibody Dilution Buffer: mix 10 ml of 5% BSA in PBS buffer with 89.5 ml TBST. • 17. Anti-phosphotyrosine monoclonal antibody conjugated to horseradish peroxidase (PY99 HRP, Santa Cruz Biotech). • 18. 2,2′-Azinobis(3-ethylbenzthiazoline-6-sulfonic acid (ABTS, Moss, Cat. No. ABST). • 19. 10% SDS. Procedure: • 1. Coat Corning 96-well ELISA plates with 2 μg of polyEY peptide in sterile PBS as described in step 3 of Materials and Reagents. • 2. Remove unbound liquid from wells by inverting plate. Wash once with TBST. Pat the plate on a paper towel to remove excess liquid. • 3. Add 100 μl of 1% BSA in PBS to each well. Incubate, with shaking, for 1 hr. at room temperature. • 4. Repeat step 2. • 5. Soak wells with 50 mM HEPES (pH7.5) (150 μl/well). • 6. Dilute test compound with dH2O/4% DMSO to 4 times the desired final assay concentration in 96-well polypropylene plates. • 7. Add 25 μl diluted test compound to ELISA plate. In control wells, place 25 μl of dH2O/4% DMSO. • 8. Add 25 μl of 40 mM MnCl2 with 4×ATP (2 μM) to each well. • 9. Add 25 μl 0.5M EDTA to negative control wells. • 10. Dilute GST-Flk1 to 0.005 μg (5 ng)/well with KDB. • 11. Add 50 μl of diluted enzyme to each well. • 12. Incubate, with shaking, for 15 minutes at room temperature. • 13. […]

PDGFR = biological target: T2, PDGFR (Homo sapiens, UniProt P09619); test: PDGFR bioassay (ELISA, in vitro kinase activity); format: biochemical; details: PDGFR-β expressing NIH 3T3 cell lysate; read-out: IC50 (μM) PDGF-R
T2 construct: SUGEN, Inc; host or cells: NIH 3T3 cell lysate; receptor captured on plate with monoclonal anti-PDGFR antibody 28D4C10
T2 sequence (P09619 33-1106, species assumed): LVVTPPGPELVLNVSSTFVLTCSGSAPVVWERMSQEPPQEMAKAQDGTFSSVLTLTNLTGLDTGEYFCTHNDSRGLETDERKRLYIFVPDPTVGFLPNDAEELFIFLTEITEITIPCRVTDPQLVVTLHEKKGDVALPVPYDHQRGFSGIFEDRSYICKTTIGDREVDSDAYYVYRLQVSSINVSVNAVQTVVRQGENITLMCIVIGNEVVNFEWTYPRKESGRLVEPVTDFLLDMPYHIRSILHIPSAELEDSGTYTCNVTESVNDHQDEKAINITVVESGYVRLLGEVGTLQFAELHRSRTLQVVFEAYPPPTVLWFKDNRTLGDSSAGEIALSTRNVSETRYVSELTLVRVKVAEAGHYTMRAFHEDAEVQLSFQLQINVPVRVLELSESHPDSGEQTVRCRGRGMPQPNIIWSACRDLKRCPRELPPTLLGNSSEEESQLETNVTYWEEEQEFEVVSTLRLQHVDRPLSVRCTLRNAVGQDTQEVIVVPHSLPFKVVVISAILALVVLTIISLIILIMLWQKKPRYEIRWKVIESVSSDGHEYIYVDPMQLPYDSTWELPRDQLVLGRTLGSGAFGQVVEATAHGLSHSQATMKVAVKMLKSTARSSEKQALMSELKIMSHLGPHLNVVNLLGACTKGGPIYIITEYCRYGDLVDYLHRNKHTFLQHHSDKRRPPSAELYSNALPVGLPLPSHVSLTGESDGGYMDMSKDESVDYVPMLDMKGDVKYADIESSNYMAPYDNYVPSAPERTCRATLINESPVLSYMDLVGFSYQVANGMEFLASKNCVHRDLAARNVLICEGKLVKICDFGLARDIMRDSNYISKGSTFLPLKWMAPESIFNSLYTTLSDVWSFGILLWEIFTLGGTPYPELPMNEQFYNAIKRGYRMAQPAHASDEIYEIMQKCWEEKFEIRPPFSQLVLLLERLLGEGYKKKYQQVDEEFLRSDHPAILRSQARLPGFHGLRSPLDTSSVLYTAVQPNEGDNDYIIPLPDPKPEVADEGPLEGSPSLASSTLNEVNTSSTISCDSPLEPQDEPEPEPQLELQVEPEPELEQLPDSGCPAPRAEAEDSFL

T1 sequence (P35918 784-1345 limits assumed): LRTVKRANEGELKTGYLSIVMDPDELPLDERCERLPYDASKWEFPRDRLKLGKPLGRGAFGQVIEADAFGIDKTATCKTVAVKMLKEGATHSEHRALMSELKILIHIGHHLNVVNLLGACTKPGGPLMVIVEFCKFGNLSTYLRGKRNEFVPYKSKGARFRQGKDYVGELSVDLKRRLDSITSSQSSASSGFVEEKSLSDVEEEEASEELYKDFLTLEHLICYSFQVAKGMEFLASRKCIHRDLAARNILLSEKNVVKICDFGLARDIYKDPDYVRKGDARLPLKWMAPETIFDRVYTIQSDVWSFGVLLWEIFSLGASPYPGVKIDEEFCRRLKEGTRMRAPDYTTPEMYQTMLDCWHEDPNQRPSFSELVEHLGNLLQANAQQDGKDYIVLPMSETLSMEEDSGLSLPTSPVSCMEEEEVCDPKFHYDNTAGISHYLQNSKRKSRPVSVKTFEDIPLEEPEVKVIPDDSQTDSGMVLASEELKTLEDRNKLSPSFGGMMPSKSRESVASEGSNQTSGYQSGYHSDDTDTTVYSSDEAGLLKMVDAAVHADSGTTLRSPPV

Compound | IC50 (GST-Flk1) [µM] | IC50 (PDGFR) [µM]
O=C(CN1CCOCC1)Nc1cccc(Nc2ncc(-c3ccsc3)cn2)c1 [Example 61, 2-morpholin-4-yl-N-[3-(5-thiophen-3-yl-pyrimidin-2-ylamino)-phenyl]-acetamide] | 2.5 | 0.94
O=C(O)c1cccc(Nc2ncc(-c3cccs3)cn2)c1 [Example 17, 3-[(5-thien-2-ylpyrimidin-2-yl)amino]benzoic acid] | > 20 | 15.2
CC(=O)Nc1ccc(Nc2ncc(-c3ccsc3)cn2)cc1 [Example 2, N-{4-[(5-thien-3-ylpyrimidin-2-yl)amino]phenyl}acetamide] | 3.74 | 0.07
O=C(NCCN1CCS(=O)(=O)CC1)Nc1cccc(Nc2ncc(-c3ccsc3)cn2)c1 [Example 52, 1-[2-(1,1-dioxo-1λ^6-thiomorpholin-4-yl)ethyl]-3-[3-(5-thiophen-3-yl-pyrimidin-2-ylamino)-phenyl]-urea] | 1.6 | 0.36
O=C(Nc1ccc(Nc2ncc(-c3ccsc3)cn2)cc1)N1CCC(N2CCCC2)CC1 [Example 30, 4-pyrrolidin-1-yl-N-{4-[(5-thien-3-ylpyrimidin-2-yl)amino]phenyl}piperidine-1-carboxamide] | 6.2 | 0.5
CC(=O)c1ccc(-c2cnc(Nc3cccc(N)c3)nc2)s1 [Example 19, 1-(5-{2-[(3-aminophenyl)amino]pyrimidin-5-yl}thien-2-yl)ethanone] | 8.6 | 2.4
CN1CCN(CCNC(=O)Nc2cccc(Nc3ncc(-c4ccsc4)cn3)c2)CC1 [Example 53, 1-[2-(4-methyl-piperazin-1-yl)-ethyl]-3-[3-(5-thiophen-3-yl-pyrimidin-2-ylamino)-phenyl]-urea] | 2.3 | 0.22
Oc1ccc(Nc2ncc(-c3cccs3)cn2)cc1 [Example 15, 4-(5-thiophen-2-yl-pyrimidin-2-ylamino)-phenol] | 4.61 | 1.7
CC(=O)Nc1cccc(Nc2ncc(-c3ccsc3)cn2)c1 [Example 36, N-{3-[(5-thien-3-ylpyrimidin-2-yl)amino]phenyl}acetamide] | 3.5 | 0.66
O=C(Nc1cccc(Nc2ncc(-c3ccsc3)cn2)c1)N1CCC(N2CCCC2)CC1 [Example 54, 4-pyrrolidin-1-yl-piperidine-1-carboxylic acid [3-(5-thiophen-3-yl-pyrimidin-2-ylamino)-phenyl]-amide] | 2.3 | 0.18
CC(=O)Nc1ccc(Nc2ncc(-c3cccs3)cn2)cc1 [Example 13, N-[4-(5-thien-2-ylpyrimidin-2-ylamino]phenyl]acetamide] | 9.86 | 0.44
Nc1cccc(Nc2ncc(-c3ccsc3)cn2)c1 [Example 6, N-(5-thien-3-ylpyrimidin-2-yl)benzene-1,3-diamine] | 1.53 | 0.06
CCN(CC)CCNC(=O)Nc1ccc(Nc2ncc(-c3ccsc3)cn2)cc1 [Example 32, N-[2-(diethylamino)ethyl]-N′-{4-[(5-thien-3-ylpyrimidin-2-yl)amino]phenyl}urea] | 5.7 | 0.53
O=C(CNCC(O)CN1CCOCC1)Nc1cccc(Nc2ncc(-c3ccsc3)cn2)c1 (stereo not shown) [Example 59, 2-(2-hydroxy-3-morpholin-4-yl-propylamino)-N-[3-(5-thiophen-3-yl-pyrimidin-2-ylamino)-phenyl]-acetamide] | 2.7 | 0.09
O=C(CN1CCCC1CN1CCCC1)Nc1ccc(Nc2ncc(-c3ccsc3)cn2)cc1 (stereo not shown) [Example 22, 2-[2-(pyrrolidin-1-ylmethyl)pyrrolidin-1-yl]-N-{4-[(5-thien-3-ylpyrimidin-2-yl)amino]phenyl}acetamide] | 4.5 | 0.41
O=C(CN1CCC(O)CC1)Nc1ccc(Nc2ncc(-c3ccsc3)cn2)cc1 [Example 28, 2-(4-hydroxypiperidin-1-yl)-N-{4-[(5-thien-3-ylpyrimidin-2-yl)amino]phenyl}acetamide] | 4.9 | 0.57
COc1ccc(NC(=O)Nc2ncc(-c3ccsc3)cn2)cc1 [Example 9, N-(4-methoxyphenyl)-N′-(5-thien-3-ylpyrimidin-2-yl)urea] | > 20 | > 20
O=C(NCC(O)CN1CCOCC1)Nc1cccc(Nc2ncc(-c3ccsc3)cn2)c1 (stereo not shown) [Example 51, 1-(2-hydroxy-3-morpholin-4-yl-propyl)-3-[3-(5-thiophen-3-yl-pyrimidin-2-ylamino)-phenyl]-urea] | 2 | 0.12
O=C(O)c1cccc(Nc2ncc(-c3ccsc3)cn2)c1 [Example 7, 3-[(5-thien-3-ylpyrimidin-2-yl)amino]benzoic acid] | 16.2 | 7.39
O=C(Nc1ccc(F)cc1)Nc1ncc(-c2ccsc2)cn1 [Example 10, N-(4-fluorophenyl)-N′-(5-thien-3-ylpyrimidin-2-yl)urea] | > 20 | > 20
Cc1ccc(Nc2ncc(-c3ccsc3)cn2)cc1NC(=O)c1ccc(CN2CCN(C)CC2)cc1 [Example 40, 4-(4-methyl-piperazin-1-ylmethyl)-N-[2-methyl-5-(5-thiophen-3-yl-pyrimidin-2-ylamino)-phenyl]-benzamide] | 10 | 2.6
O=C(NCCN1CCOCC1)Nc1cccc(Nc2ncc(-c3ccsc3)cn2)c1 [Example 49] | 1.9 | 0.14
Oc1ccc(Nc2ncc(-c3ccsc3)cn2)cc1 [Example 1, 4-[(5-thien-3-ylpyrimidin-2-yl)amino]phenol] | 4.5 | 0.52
CN1CCN(CC(=O)Nc2ccc(Nc3ncc(-c4ccsc4)cn3)cc2)CC1 [Example 23, 2-(4-methylpiperazin-1-yl)-N-{4-[(5-thien-3-ylpyrimidin-2-yl)amino]phenyl}acetamide] | 5.1 | 0.55
O=C(CNCCN1CCS(=O)(=O)CC1)Nc1cccc(Nc2ncc(-c3ccsc3)cn2)c1 [Example 60, 2-[2-(1,1-dioxo-1λ^6-thiomorpholin-4-yl)-ethylamino]-N-[3-(5-thiophen-3-yl-pyrimidin-2-ylamino)-phenyl]-acetamide] | 2.4 | 0.06
CN1CCN(Cc2ccc(C(=O)Nc3ccc(Nc4ncc(-c5ccsc5)cn4)cc3)cc2)CC1 [Example 12, 4-[(4-methylpiperazin-1-yl)methyl]-N-{4-[(5-thien-3-ylpyrimidin-2-yl)amino]phenyl}benzamide] | 2.52 | 0.26

From patent publication US20070293484A1, “Thiophene Heteroaryl Amines” (SUGEN, INC., priority 2004, published 2007)
